In ChEMBL document CHEMBL1201862, “PubChem BioAssay data set” (2004):
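Assay format: 96-well plates, 48-hour exposure. GI50 marks 50% less growth.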 The source made the active and inactive calls. Cut-off read from the data, not from the text of the source: active = GI50 up to about 1.1 µM and inactive = higher.

Key:
Experiment in all cases: growth of human tumour cells (NCI), 48 h
786-0 = test system: 786-0
A549 = test system: A549
CAKI-1 = test system: CAKI-1
CCRF-CEM = test system: CCRF-CEM
HCC 2998 = test system: HCC 2998
HL-60 = test system: HL-60
IGROV-1 = test system: IGROV-1
LOX IMVI = test system: LOX IMVI
NCI-H23 = test system: NCI-H23
NCI-H460 = test system: NCI-H460
OVCAR-4 = test system: OVCAR-4
OVCAR-5 = test system: OVCAR-5
SF-268 = test system: SF-268
SF-539 = test system: SF-539
SK-MEL-28 = test system: SK-MEL-28
SK-MEL-2 = test system: SK-MEL-2
SNB-75 = test system: SNB-75
SW-620 = test system: SW-620
SR = test system: SR

Cc1nc(Nc2ccccc2)sc1C(=O)NNC(N)=O
GI50 (786-0): > 100 µM (inactive)
GI50 (A549): > 100 µM (inactive)
GI50 (CAKI-1): > 100 µM (inactive)
GI50 (CCRF-CEM): > 100 µM (inactive)
GI50 (HCC 2998): > 100 µM (inactive)
GI50 (HL-60): > 100 µM (inactive)
GI50 (IGROV-1): > 100 µM (inactive)
GI50 (LOX IMVI): > 100 µM (inactive)
GI50 (NCI-H23): > 100 µM (inactive)
GI50 (NCI-H460): > 100 µM (inactive)
GI50 (OVCAR-4): > 100 µM (inactive)
GI50 (OVCAR-5): > 100 µM (inactive)
GI50 (SF-268): > 100 µM (inactive)
GI50 (SF-539): > 100 µM (inactive)
GI50 (SK-MEL-28): > 100 µM (inactive)
GI50 (SK-MEL-2): > 100 µM (inactive)
GI50 (SNB-75): 29.6 µM (inactive)
GI50 (SW-620): > 100 µM (inactive)

N#CC(OC1OC(COC2OC(CO)C(O)C(O)C2O)C(O)C(O)C1O)c1ccccc1 (stereo not drawn)
GI50 (A549): > 225 µM (inactive)
GI50 (CAKI-1): > 225 µM (inactive)
GI50 (CCRF-CEM): > 225 µM (inactive)
GI50 (HCC 2998): > 225 µM (inactive)
GI50 (HL-60): > 225 µM (inactive)
GI50 (IGROV-1): > 225 µM (inactive)
GI50 (LOX IMVI): > 225 µM (inactive)
GI50 (NCI-H23): > 225 µM (inactive)
GI50 (NCI-H460): > 225 µM (inactive)
GI50 (OVCAR-4): > 225 µM (inactive)
GI50 (OVCAR-5): > 191 µM (inactive)
GI50 (SF-268): > 225 µM (inactive)
GI50 (SF-539): > 225 µM (inactive)
GI50 (SK-MEL-28): > 225 µM (inactive)
GI50 (SK-MEL-2): > 225 µM (inactive)
GI50 (SNB-75): > 225 µM (inactive)
GI50 (SW-620): > 225 µM (inactive)

Cn1c(=O)nc2n(-c3ccc(Br)cc3)c3ccccc3nc-2c1=O
GI50 (786-0): 3.74 µM (inactive)
GI50 (A549): 2.02 µM (inactive)
GI50 (CAKI-1): 4.86 µM (inactive)
GI50 (CCRF-CEM): 3.81 µM (inactive)
GI50 (HCC 2998): 2.21 µM (inactive)
GI50 (IGROV-1): 11.7 µM (inactive)
GI50 (NCI-H23): 0.783 µM (active)
GI50 (NCI-H460): 1.82 µM (inactive)
GI50 (OVCAR-4): 3.51 µM (inactive)
GI50 (OVCAR-5): 13.6 µM (inactive)
GI50 (SF-268): 11.3 µM (inactive)
GI50 (SF-539): 5.85 µM (inactive)
GI50 (SK-MEL-2): 9.33 µM (inactive)
GI50 (SNB-75): 4.65 µM (inactive)
GI50 (SW-620): 2.06 µM (inactive)

C=C1CC(OC)(C(O)C(=O)N[C@H]2OCO[C@H]3C2O[C@H](C[C@H](O)COC)C(C)(C)C3OC)O[C@H](C)[C@@H]1C (stereo partly drawn)
GI50 (A549): < 0.00773 µM (active)
GI50 (CAKI-1): < 0.00773 µM (active)
GI50 (CCRF-CEM): < 0.00773 µM (active)
GI50 (HCC 2998): < 0.00773 µM (active)
GI50 (HL-60): < 0.00773 µM (active)
GI50 (IGROV-1): < 0.00773 µM (active)
GI50 (LOX IMVI): < 0.00773 µM (active)
GI50 (NCI-H23): < 0.00773 µM (active)
GI50 (NCI-H460): < 0.00773 µM (active)
GI50 (OVCAR-4): < 0.00773 µM (active)
GI50 (OVCAR-5): < 0.00773 µM (active)
GI50 (SF-268): < 0.00773 µM (active)
GI50 (SF-539): < 0.00773 µM (active)
GI50 (SK-MEL-28): < 0.00773 µM (active)
GI50 (SNB-75): < 0.00773 µM (active)
GI50 (SW-620): < 0.00773 µM (active)

COC(=O)c1ccc(/N=N/N(C)CO)cc1
GI50 (786-0): 74 µM (inactive)
GI50 (A549): > 100 µM (inactive)
GI50 (CCRF-CEM): > 100 µM (inactive)
GI50 (HCC 2998): > 100 µM (inactive)
GI50 (HL-60): > 100 µM (inactive)
GI50 (IGROV-1): > 100 µM (inactive)
GI50 (LOX IMVI): > 100 µM (inactive)
GI50 (NCI-H23): > 100 µM (inactive)
GI50 (NCI-H460): > 100 µM (inactive)
GI50 (OVCAR-4): 55.8 µM (inactive)
GI50 (OVCAR-5): > 100 µM (inactive)
GI50 (SF-539): 57.4 µM (inactive)
GI50 (SK-MEL-28): > 100 µM (inactive)
GI50 (SK-MEL-2): > 100 µM (inactive)
GI50 (SNB-75): 27.7 µM (inactive)
GI50 (SR): 44.3 µM (inactive)
GI50 (SW-620): > 100 µM (inactive)

CC(O)/C=C/C(CCC(C)CO)C(C)C (stereo not drawn)
GI50 (786-0): > 100 µM (inactive)
GI50 (A549): > 100 µM (inactive)
GI50 (CAKI-1): > 100 µM (inactive)
GI50 (CCRF-CEM): > 100 µM (inactive)
GI50 (HCC 2998): > 100 µM (inactive)
GI50 (HL-60): > 100 µM (inactive)
GI50 (IGROV-1): > 100 µM (inactive)
GI50 (LOX IMVI): > 100 µM (inactive)
GI50 (NCI-H23): > 100 µM (inactive)
GI50 (NCI-H460): > 100 µM (inactive)
GI50 (OVCAR-4): > 100 µM (inactive)
GI50 (OVCAR-5): > 100 µM (inactive)
GI50 (SF-268): > 100 µM (inactive)
GI50 (SF-539): > 100 µM (inactive)
GI50 (SK-MEL-28): > 100 µM (inactive)
GI50 (SK-MEL-2): > 100 µM (inactive)
GI50 (SNB-75): > 100 µM (inactive)
GI50 (SW-620): > 100 µM (inactive)

O=C1C(Cl)N(c2cccc([N+](=O)[O-])c2)C1c1c[nH]c2ccccc12 (stereo not drawn)
GI50 (A549): 22.1 µM (inactive)
GI50 (CCRF-CEM): 4.61 µM (inactive)
GI50 (HL-60): 22.3 µM (inactive)
GI50 (IGROV-1): 16.4 µM (inactive)
GI50 (NCI-H23): 22.2 µM (inactive)
GI50 (NCI-H460): 12.1 µM (inactive)
GI50 (OVCAR-4): 18.1 µM (inactive)
GI50 (OVCAR-5): 11.9 µM (inactive)
GI50 (SF-268): 29.6 µM (inactive)
GI50 (SF-539): 15.3 µM (inactive)
GI50 (SK-MEL-28): 23.7 µM (inactive)
GI50 (SK-MEL-2): 14.4 µM (inactive)
GI50 (SNB-75): 22.9 µM (inactive)
GI50 (SR): 10.7 µM (inactive)
GI50 (SW-620): 21.7 µM (inactive)

CC1=C(O)C(=O)[C@@H]2O[C@@H]2C1=O
GI50 (A549): 27.3 µM (inactive)
GI50 (CAKI-1): 5.69 µM (inactive)
GI50 (CCRF-CEM): 1.6 µM (inactive)
GI50 (HCC 2998): 15.2 µM (inactive)
GI50 (HL-60): 2.2 µM (inactive)
GI50 (IGROV-1): 20.1 µM (inactive)
GI50 (LOX IMVI): 12.5 µM (inactive)
GI50 (NCI-H23): 12.7 µM (inactive)
GI50 (NCI-H460): 19 µM (inactive)
GI50 (OVCAR-4): 14.6 µM (inactive)
GI50 (OVCAR-5): 16.3 µM (inactive)
GI50 (SF-268): 14.2 µM (inactive)
GI50 (SF-539): 15.9 µM (inactive)
GI50 (SK-MEL-28): 5.98 µM (inactive)
GI50 (SK-MEL-2): 16 µM (inactive)
GI50 (SNB-75): 17.4 µM (inactive)
GI50 (SW-620): 3.65 µM (inactive)
